In ChEMBL document CHEMBL6092168, “Identification of novel indolinone derivatives as CTSC inhibitors to treat inflammatory bowel disease by modulating inflammatory factors” (Eur J Med Chem, 2024):
Active and inactive are the calls of the source. The rule behind the calls is not given here.

Columns and labels:
Dipeptidyl peptidase 1 = Dipeptidyl peptidase 1 (Homo sapiens, UniProt P53634); experiment: Inhibition of human recombinant Cathepsin C using Gly-Phe-AFC as substrate preincubated for 3 hrs followed by substrate addition and measured after 1 hr by fluorescence based multifunctional microplate reader analysis
Dipeptidyl peptidase 1, sequence (P53634 25-134 limits assumed): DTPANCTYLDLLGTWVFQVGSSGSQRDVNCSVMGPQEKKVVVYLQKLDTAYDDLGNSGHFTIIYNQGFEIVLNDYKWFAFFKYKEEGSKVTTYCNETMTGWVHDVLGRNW
Dipeptidyl peptidase 1, sequence (P53634 231-394 limits assumed): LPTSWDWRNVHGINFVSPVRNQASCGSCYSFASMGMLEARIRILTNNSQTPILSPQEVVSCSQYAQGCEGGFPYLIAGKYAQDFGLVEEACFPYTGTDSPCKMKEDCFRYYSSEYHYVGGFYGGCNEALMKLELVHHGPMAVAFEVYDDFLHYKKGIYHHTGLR
Dipeptidyl peptidase 1, sequence (P53634 395-463 limits assumed): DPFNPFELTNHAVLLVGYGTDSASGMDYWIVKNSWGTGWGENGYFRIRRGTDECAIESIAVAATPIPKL

RAW264.7 [1] = experiment: Anti-inflammatory activity in mouse RAW264.7 cells assessed as inhibition of LPS-induced IL-1beta production at 5 uM preincubated for 1 hr followed by LPS addition and measured after 24 hrs by ELISA relative to control; assay type: functional; design: scale not given: the % may be the effect or the level left
RAW264.7 [2] = experiment: Anti-inflammatory activity in mouse RAW264.7 cells assessed as inhibition of LPS-induced TNF-alpha production at 5 uM preincubated for 1 hr followed by LPS addition and measured after 24 hrs by ELISA relative to control; assay type: functional; design: scale not given: the % may be the effect or the level left
RAW264.7 [3] = experiment: Anti-inflammatory activity in mouse RAW264.7 cells assessed as inhibition of LPS-induced NO production preincubated for 1 hr followed by LPS addition and measured after 24 hrs by Griess reagent based assay; assay type: functional, cell-based

| SMILES | IC50 (Dipeptidyl peptidase 1) | IC50 (RAW264.7 [3]) | Activity (RAW264.7 [1]; time 25 hrs) | Activity (RAW264.7 [2]; time 25 hrs) | Activity (RAW264.7 [1]; time 25.0 hrs) | Activity (RAW264.7 [2]; time 25.0 hrs) |
| --- | --- | --- | --- | --- | --- | --- |
| O=C(Nc1cccc(Cl)c1)c1cccc(-c2ccc(CN3CCOCC3)cc2)c1 | 377 nM | > 50 µM | 40.2% | 35.5% |  |  |
| O=C(Nc1ccc(C(F)(F)F)cc1)c1cccc(-c2ccc(CN3CCOCC3)cc2)c1 | > 1000 nM | > 50 µM |  |  | inactive | inactive |
| O=C(Nc1nccc2ccccc12)c1cccc(-c2ccc(CN3CCOCC3)cc2)n1 | 244 nM | > 50 µM |  |  | inactive | inactive |
| O=C(Nc1ccc(Cl)cc1)c1cccc(-c2ccc(CN3CCOCC3)cc2)c1 | 575 nM | > 50 µM |  |  | inactive | inactive |
| O=C1Nc2c(cccc2-c2ccc(Cl)cc2)/C1=C/c1ccnc2ccccc12 | > 1000 nM | > 50 µM |  |  | inactive | inactive |
| O=C(Nc1cccc(F)c1)c1cccc(-c2ccc(CN3CCOCC3)cc2)c1 | > 1000 nM | > 50 µM |  |  | inactive | inactive |
| COc1ccc(NC(=O)c2cccc(-c3ccc(CN4CCOCC4)cc3)c2)cc1 | 731 nM | > 50 µM |  |  | inactive | inactive |
| COc1ccc(-c2cccc3c2NC(=O)/C3=C\c2ccnc3ccccc23)cc1 | > 1000 nM | > 50 µM |  |  | inactive | inactive |
| CC(=O)Nc1cccc(NC(=O)c2cccc(-c3ccc(CN4CCOCC4)cc3)c2)c1 | > 1000 nM | > 50 µM |  |  | inactive | inactive |
| CCc1cccc(NC(=O)c2cccc(-c3ccc(CN4CCOCC4)cc3)c2)c1 | > 1000 nM | > 50 µM |  |  | inactive | inactive |
| CC(=O)c1ccc(NC(=O)c2cccc(-c3ccc(CN4CCOCC4)cc3)c2)cc1 | > 1000 nM | > 50 µM |  |  | inactive | inactive |
| Cc1cccc(NC(=O)c2cccc(-c3ccc(CN4CCOCC4)cc3)c2)c1 | > 1000 nM | > 50 µM |  |  | inactive | inactive |
| O=C(Nc1ccc(F)cc1)c1cccc(-c2ccc(CN3CCOCC3)cc2)c1 | > 1000 nM | > 50 µM |  |  | inactive | inactive |
| Cc1ccccc1NC(=O)c1cccc(-c2ccc(CN3CCOCC3)cc2)c1 | > 1000 nM | > 50 µM |  |  | inactive | inactive |
| CNC(=O)c1cccc(NC(=O)c2cccc(-c3ccc(CN4CCOCC4)cc3)c2)c1 | > 1000 nM | > 50 µM |  |  | inactive | inactive |
| CC(=O)Nc1ccccc1NC(=O)c1cccc(-c2ccc(CN3CCOCC3)cc2)c1 | 900 nM | > 50 µM |  |  | inactive | inactive |
| O=C1Nc2c(cccc2-c2ccc(C(F)(F)F)cc2)/C1=C/c1ccnc2ccccc12 | > 1000 nM | > 50 µM |  |  | inactive | inactive |
| COc1cccc(NC(=O)c2cccc(-c3ccc(CN4CCOCC4)cc3)c2)c1 | 486 nM | > 50 µM | 25.5% | 20.4% |  |  |
| O=C1Nc2c(cccc2-c2ccc(F)cc2)/C1=C/c1ccnc2ccccc12 | > 1000 nM | 37.2 µM |  |  | inactive | inactive |
| CC(C)c1ccccc1NC(=O)c1cccc(-c2ccc(CN3CCOCC3)cc2)c1 | > 1000 nM | > 50 µM |  |  | inactive | inactive |
| O=C1Nc2c(cccc2-c2ccccc2)/C1=C/c1ccnc2ccccc12 | > 1000 nM | > 50 µM |  |  | inactive | inactive |
| CCc1ccc(NC(=O)c2cccc(-c3ccc(CN4CCOCC4)cc3)c2)cc1 | > 1000 nM | > 50 µM |  |  | inactive | inactive |
| CCc1ccc(-c2cccc3c2NC(=O)/C3=C\c2ccnc3ccccc23)cc1 | > 1000 nM | > 50 µM |  |  | inactive | inactive |
| CCc1ccccc1NC(=O)c1cccc(-c2ccc(CN3CCOCC3)cc2)c1 | > 1000 nM | > 50 µM |  |  | inactive | inactive |
| CC(C)c1ccc(NC(=O)c2cccc(-c3ccc(CN4CCOCC4)cc3)c2)cc1 | > 1000 nM | > 50 µM |  |  | inactive | inactive |
| CC(C)c1cccc(NC(=O)c2cccc(-c3ccc(CN4CCOCC4)cc3)c2)c1 | > 1000 nM | > 50 µM |  |  | inactive | inactive |

The next compounds have a lower IC50 (RAW264.7 [3]) than those just listed; values first:

| IC50 (Dipeptidyl peptidase 1) | IC50 (RAW264.7 [3]) | SMILES | Activity (RAW264.7 [1]; time 25 hrs) | Activity (RAW264.7 [2]; time 25 hrs) | Activity (RAW264.7 [1]; time 25.0 hrs) | Activity (RAW264.7 [2]; time 25.0 hrs) |
| --- | --- | --- | --- | --- | --- | --- |
| 293 nM | 16.8 µM | CC(=O)c1ccc(-c2cccc3c2NC(=O)/C3=C\c2ccnc3ccccc23)cc1 |  |  | inactive | inactive |
| 290 nM | 16.2 µM | NC(=O)c1ccc(-c2cccc3c2NC(=O)/C3=C\c2ccnc3ccccc23)cc1 |  |  | inactive | inactive |
| 360 nM | 16.1 µM | NC(=O)c1cccc(NC(=O)c2cccc(-c3ccc(CN4CCOCC4)cc3)c2)c1 | 35.6% | 41.9% |  |  |
| 237 nM | 15.7 µM | O=C(Nc1ccc(O)cc1)c1cccc(-c2ccc(CN3CCOCC3)cc2)c1 | 38.6% | 40.8% |  |  |
| 398 nM | 15.6 µM | Nc1n[nH]c2ccc(-c3cccc4c3NC(=O)/C4=C\c3ccnc4ccccc34)cc12 | 59.3% | 37.8% |  |  |
| 660 nM | 14.5 µM | CN(C)Cc1ccc(-c2cccc3c2NC(=O)/C3=C\c2ccnc3ccccc23)cc1 |  |  | inactive | inactive |
|  | 14.5 µM | NCc1ccc(-c2cccc3c2NC(=O)/C3=C\c2ccnc3ccccc23)cc1 |  |  | inactive | inactive |
| 537 nM | 11.3 µM | O=C1Nc2c(cccc2-c2ccc(N3CCOCC3)cc2)/C1=C/c1ccnc2ccccc12 |  |  | inactive | inactive |
| 253 nM | 10 µM | O=C(Nc1cccc2ccccc12)c1cccc(-c2ccc(CN3CCOCC3)cc2)n1 | 68.5% | 59.6% |  |  |
|  | 9.8 µM | O=C1Nc2c(cccc2-c2ccc3cc[nH]c3c2)/C1=C/c1ccnc2ccccc12 | 60.2% | 39.4% |  |  |
| 250 nM | 9.7 µM | O=C(Nc1cncc2ccccc12)c1cccc(-c2ccc(CN3CCOCC3)cc2)c1 | 65.6% | 62.5% |  |  |
| 265 nM | 9.7 µM | O=C(Nc1cccc(O)c1)c1cccc(-c2ccc(CN3CCOCC3)cc2)c1 | 55.7% | 62.2% |  |  |
| 262 nM | 8.7 µM | O=C(Nc1nccc2ccccc12)c1cccc(-c2ccc(CN3CCOCC3)cc2)c1 | 70.6% | 67.7% |  |  |
| 182 nM | 8.6 µM | O=C1Nc2c(cccc2-c2ccc(C(=O)N3CCOCC3)cc2)/C1=C/c1ccnc2ccccc12 | 65.2% | 58.1% |  |  |
| 272 nM | 8.4 µM | Nc1c(C(=O)Nc2cccc3ccccc23)cccc1-c1ccc(CN2CCOCC2)cc1 | 67.1% | 40.1% |  |  |
| 324 nM | 8.3 µM | Nc1c(C(=O)Nc2nccc3ccccc23)cccc1-c1ccc(CN2CCOCC2)cc1 | 44.2% | 33.3% |  |  |
| 263 nM | 8.2 µM | O=C(Nc1cccc2ccccc12)c1cccc(-c2ccc(CN3CCOCC3)cc2)c1 | 63.2% | 54.3% |  |  |
| 493 nM | 8.1 µM | Nc1ccc(-c2cccc3c2NC(=O)/C3=C\c2ccnc3ccccc23)cc1 |  |  | inactive | inactive |
| 223 nM | 7.6 µM | O=C(Nc1ccc2ccccc2c1)c1cccc(-c2ccc(CN3CCOCC3)cc2)c1 | 68.8% | 63.2% |  |  |
| 195 nM | 6.8 µM | O=C1Nc2c(cccc2-c2ccc3[nH]ccc3c2)/C1=C/c1ccnc2ccccc12 | 63.5% | 43.2% |  |  |
|  | 6.8 µM | O=C1Nc2c(cccc2-c2ccc(C(=O)NC3CCOCC3)cc2)/C1=C/c1ccnc2ccccc12 | 88.1% | 71.9% |  |  |
| 145 nM | 6.4 µM | Nc1c(C(=O)Nc2ccnc3ccccc23)cccc1-c1ccc(CN2CCOCC2)cc1 | 80.9% | 75.2% |  |  |
| 128 nM | 5.1 µM | O=C1Nc2c(cccc2-c2ccc(CN3CCNCC3)cc2)/C1=C/c1ccnc2ccccc12 | 82.5% | 68.7% |  |  |
| 106 nM | 4.4 µM | O=C1Nc2c(cccc2-c2ccc(CN3CCOCC3)cc2)/C1=C/c1ccnc2ccccc12 | 88.3% | 72.2% |  |  |
| 302 nM | 2.9 µM | O=C(Nc1ccc2ccccc2c1)c1cccc(-c2ccc(CN3CCOCC3)cc2)n1 | 69.3% | 57.4% |  |  |
| 273 nM | 2.9 µM | O=C(Nc1ccnc2ccccc12)c1cccc(-c2ccc(CN3CCOCC3)cc2)n1 | 70.2% | 62.2% |  |  |
